Converted amounts (≈) assume the structure as drawn.
Columns and labels:
[1] = test system: C3H/10T1/2 mouse embryo fibroblasts; conditions: for LC50 value (reduces the plating efficiency to 50% of control cells) / CC50: 10T1/2 cells; for CC50: read-out: LC50 value; for Highest Non-Cytotoxic Concentration: mouse
[2] = in vitro; conditions: mouse
[3] = test system: ringworm; assay: Cat ringworm treatment; type: in vivo, kittens; conditions: Solution A 1:16 topically three times daily for three days

SMILES | CC50 [2] | Highest Non-Cytotoxic Concentration [1] | also measured
CC(=O)ON(C(C)=O)c1ccc2c(c1)Cc1ccccc1-2 [N-acetoxy-acetyl aminofluorene] |  |  | LC50 value (reduces the plating efficiency to 50% of control cells) [1]: 3.99 µg/mL; CC50 [1]: 15 µM
CC(=O)Nc1ccc(O)cc1 [Acetaminophen] | 500 µg/mL (≈ 3310 µM) | 0.05 mg/mL | 
COC(=O)Nc1nc2cc(C(=O)c3ccc(F)cc3)ccc2[nH]1 [Flubendazole] | 0.15 µg/mL (≈ 0.479 µM) |  | 
CC(=O)Oc1ccccc1C(=O)O [Aspirin] |  | 0.25 mg/mL | 
COC1=CC(=O)C[C@@H](C)[C@]12Oc1c(Cl)c(OC)cc(OC)c1C2=O [Griseofulvin] |  |  | outcome of ringworm treatment [3]: no success
OC1c2cc3ccc4cccc5ccc(c2C2OC2C1O)c3c45 (stereo not drawn) [BaP-anti-diol epoxide] |  |  | LC50 value (reduces the plating efficiency to 50% of control cells) [1]: 0.0755 µg/mL; CC50 [1]: 0.25 µM
CCOc1ccc(NC(C)=O)cc1 [Phenacetin] | 1000 µg/mL (≈ 5580 µM) | 0.18 mg/mL | 
C[C@@H]1O[C@@H](O[C@H]2C[C@@H](O)[C@]3(CO)[C@H]4[C@H](O)C[C@]5(C)[C@@H](C6=CC(=O)OC6)CC[C@]5(O)[C@@H]4CC[C@]3(O)C2)[C@H](O)[C@H](O)[C@H]1O [Ouabain] | 500 µg/mL (≈ 855 µM) |  | 

Reference: patent US20080286235A1, “Antimicrobials and related methods” (priority 2006, published 2008)
